Assay results published in US20240043403A1, “HETEROARYL CARBOXAMIDE COMPOUND” (Astellas Pharma Inc., priority 2020, published 2024).

Tested on: B16-F1 cells
Assay: Evaluation of antitumor effect in syngeneic mouse model bearing mouse melanoma cell line B16-F1
Assay type: in vivo
Settings: po, 240 h, 0.03 mg/kg orally once daily for 10 days, C57BL/6J mice bearing B16-F1, read-out: Antitumor effect (relative tumor growth inhibition)
Experimental: Test Example 3: Evaluation of Antitumor Effect in Syngeneic Mouse Model Bearing Mouse Melanoma Cell Line B16-F1
A cell suspension liquid prepared by suspending B16-F1 cells (ATCC, CRL-6323) in PBS at 2.0×10^6 cells/mL was subcutaneously inoculated into 5-week-old female mice (C57BL/6J from Charles River Laboratories Japan, Inc.) in a volume of 50 μL. 5 days after the inoculation, the mice were grouped in such a manner that there was substantially no difference in tumor volume between groups, and administration of the test compound was started. The test was conducted with a solvent group and a test compound administration group each having 10 mice. 0.5% methylcellulose (Shin-Etsu Chemical Co., Ltd.) was orally administered to the solvent group, and 0.5% methylcellulose mixed with the test compound was orally administered to the test compound administration group. The administration was performed for 10 days once daily, and the tumor diameter and the body weight were measured twice a week. The following expression was used for calculation of the tumor volume.
[tumor volume (mm^3)]=[tumor major diameter […]]×[tumor minor diameter (mm)]^2×0.5
The relative tumor growth inhibition (%) of the test compound was calculated, where the tumor volume of the solvent group immediately before the start of administration was set to 100% inhibition, and the tumor volume of the solvent group on the day after the last administration was set to 0% inhibition. […] In the table, Ex represents the number of each Example described below.

Structure (SMILES)	inhibition in vivo at 0.03 mg/kg
NC[C@]1(F)CCCN(c2c(NC(=O)c3ccn(-c4ccnnc4)n3)ccc(Oc3ccccc3F)c2C(F)(F)F)C1 [Example 45]	30%

Same assay, conditions: po, 240 h, 0.3 mg/kg orally once daily for 10 days, C57BL/6J mice bearing B16-F1, read-out: Antitumor effect (relative tumor growth inhibition)

Structure (SMILES)	inhibition in vivo at 0.3 mg/kg
CNC[C@H]1CN(c2c(NC(=O)c3ccn(-c4ccnnc4)n3)ccc(Oc3ccccc3F)c2C(F)(F)F)CCN1C [Example 29, N-[4-(2-fluorophenoxy)-2-{(3S)-4-methyl-3-[(methylamino)methyl]piperazin-1-yl}-3-(trifluoromethyl)phenyl]-1-(pyridazin-4-yl)-1H-pyrazole-3-carboxamide]	41%
CNC[C@@H]1CN(c2c(NC(=O)c3ccn(-c4ccnnc4)n3)ccc(Oc3ccccc3F)c2C(F)(F)F)CCN1C [Example 47]	42%
CNC[C@H]1CN(c2c(NC(=O)c3ccn(-c4ccnnc4)n3)ccc(C3CCCC3)c2C(F)(F)F)CCN1C [Example 48]	40%
CNC[C@H]1CN(c2c(NC(=O)c3ccn(-c4ccnnc4)n3)ccc(Oc3ccccc3F)c2Cl)CCN1C [Example 86, N-[3-chloro-4-(2-fluorophenoxy)-2-{(3S)-4-methyl-3-[(methylamino)methyl]piperazin-1-yl}phenyl]-1-(pyridazin-4-yl)-1H-pyrazole-3-carboxamide]	31%

Biological target: human recombinant DGK ξ (Homo sapiens (Human), UniProt Q13574)
Assay: Evaluation of DGK ξ inhibitory effect (ADP-Glo Kinase Assay)
Assay type: biochemical
Settings: ADP-Glo luminescence
Experimental: Test Example 1. Evaluation of DGK ξ Inhibitory Effect
The inhibitory effect of a test compound on human recombinant DGK ξ (Cama Biosciences, Inc., 12-410-20N) was examined by the following method in which detection is performed with ADP-Glo™ Kinase Assay (Promega Corporation).
To a 384-well plate (Greiner Bio-One Co., Ltd.), 3 μL of a DGK ξ enzyme dissolved in an assay buffer (40 mM Tris-HCl pH 7.5, 10 mM MgCl2, 1 mM dithiothreitol (DTT) and 0.1 mg/mL bovine serum albumin (BSA)) (90 ng/mL) was added, and 3 μL of the test compound diluted with the same assay buffer was added so that an intended final concentration was obtained. The mixture was left standing at room temperature for 15 minutes, 3 μL of a substrate (150 μM 1-oleoyl-2-acetyl-sn-glycerol (Sigma-Aldrich Co. LLC), 480 μM phosphatidylserine (Avanti, Inc.) and 150 μM UltraPure-ATP (attached to ADP-Glo)) was then added, and the mixture was left standing at room temperature for 30 minutes to react. Thereafter, 3 μL of an ADP-Glo Reagent was added, and the mixture was left standing at room temperature for 40 minutes to stop the enzyme reaction. Further, 6 μL of a Kinase-Detection Reagent was added, the mixture was left standing at room temperature for 30 minutes, and the luminescence was then measured using ARVO X3 (PerkinElmer, Inc.). The half maximal inhibitory concentration (IC50) was calculated by Sigmoid-Emax model non-linear regression analysis, where the signal value in solvent treatment was set to 0% inhibition and the signal value without addition of the DGK ξ enzyme was set to 100% inhibition. […] In the table. Ex represents the number of each Example described below.

Chain of human recombinant DGK ξ (Q13574 whole entry): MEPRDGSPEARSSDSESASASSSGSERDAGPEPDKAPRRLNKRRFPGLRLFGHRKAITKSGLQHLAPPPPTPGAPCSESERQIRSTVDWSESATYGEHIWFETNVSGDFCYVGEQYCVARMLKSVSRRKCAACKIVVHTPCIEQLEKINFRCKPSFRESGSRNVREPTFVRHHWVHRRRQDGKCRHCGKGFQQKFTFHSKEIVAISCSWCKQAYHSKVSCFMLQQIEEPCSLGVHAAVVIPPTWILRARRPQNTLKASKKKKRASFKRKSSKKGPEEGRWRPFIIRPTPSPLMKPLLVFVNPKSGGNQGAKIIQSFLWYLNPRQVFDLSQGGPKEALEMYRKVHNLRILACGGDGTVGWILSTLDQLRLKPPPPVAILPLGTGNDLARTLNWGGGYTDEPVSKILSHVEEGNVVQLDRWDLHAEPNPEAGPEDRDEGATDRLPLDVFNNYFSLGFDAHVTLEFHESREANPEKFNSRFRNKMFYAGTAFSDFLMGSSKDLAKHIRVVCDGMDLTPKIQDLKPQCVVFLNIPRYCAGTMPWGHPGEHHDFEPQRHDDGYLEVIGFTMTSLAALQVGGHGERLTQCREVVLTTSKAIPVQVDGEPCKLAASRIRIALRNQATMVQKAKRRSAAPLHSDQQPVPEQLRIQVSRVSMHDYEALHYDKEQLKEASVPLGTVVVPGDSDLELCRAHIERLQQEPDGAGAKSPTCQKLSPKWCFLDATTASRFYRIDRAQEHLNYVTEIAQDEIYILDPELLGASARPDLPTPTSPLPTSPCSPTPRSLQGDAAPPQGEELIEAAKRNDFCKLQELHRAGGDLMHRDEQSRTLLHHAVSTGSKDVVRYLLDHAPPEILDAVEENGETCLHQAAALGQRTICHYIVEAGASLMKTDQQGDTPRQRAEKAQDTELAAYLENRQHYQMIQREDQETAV

Structure (SMILES)	IC50
CNC[C@H]1CN(c2c(NC(=O)c3ccn(-c4ccnnc4)n3)ccc(Oc3ccccc3F)c2C(F)(F)F)CCN1C [Example 29, N-[4-(2-fluorophenoxy)-2-{(3S)-4-methyl-3-[(methylamino)methyl]piperazin-1-yl}-3-(trifluoromethyl)phenyl]-1-(pyridazin-4-yl)-1H-pyrazole-3-carboxamide]	10 nM
NC[C@]1(F)CCCN(c2c(NC(=O)c3ccn(-c4ccnnc4)n3)ccc(Oc3ccccc3F)c2C(F)(F)F)C1 [Example 45]	12 nM
CNC[C@@H]1CN(c2c(NC(=O)c3ccn(-c4ccnnc4)n3)ccc(Oc3ccccc3F)c2C(F)(F)F)CCN1C [Example 47]	6.7 nM
CNC[C@H]1CN(c2c(NC(=O)c3ccn(-c4ccnnc4)n3)ccc(C3CCCC3)c2C(F)(F)F)CCN1C [Example 48]	5.8 nM
CNC[C@H]1CN(c2c(NC(=O)c3ccn(-c4ccnnc4)n3)ccc(Oc3ccccc3F)c2Cl)CCN1C [Example 86, N-[3-chloro-4-(2-fluorophenoxy)-2-{(3S)-4-methyl-3-[(methylamino)methyl]piperazin-1-yl}phenyl]-1-(pyridazin-4-yl)-1H-pyrazole-3-carboxamide]	2.9 nM
CNC[C@H]1CN(c2c(NC(=O)c3coc(-c4ccnnc4)n3)ccc(OC3CCC3)c2C(F)(F)F)CCN1C [Example 100]	60 nM
CNC[C@H]1CN(c2c(NC(=O)c3ccn(-c4ccnnc4)n3)ccc(Oc3ccc(F)cc3)c2C(F)(F)F)CCN1C [Example 101]	69 nM
CNC[C@H]1CN(c2c(NC(=O)c3coc(-c4ccnnc4)n3)ccc(Oc3ccc(F)cc3)c2C(F)(F)F)CCN1C [Example 102]	210 nM
CNC[C@H]1CN(c2c(NC(=O)c3coc(-c4ccnnc4)n3)ccc(Oc3ccccc3F)c2C2CC2)CCN1C [Example 103]	46 nM
CNC[C@H]1CN(c2c(NC(=O)c3ccn(-c4ccnnc4)n3)ccc(Oc3ccccc3F)c2C2CC2)CCN1C [Example 104]	37 nM
CNC[C@H]1CN(c2c(NC(=O)c3coc(-c4ccnnc4)n3)ccc(Oc3ccccc3)c2C(F)(F)F)CCN1C [Example 105]	46 nM
CNC[C@H]1CN(c2c(NC(=O)c3coc(-c4ccnnc4)n3)cc(F)c(Oc3ccccc3)c2F)CCN1C [Example 106]	7.5 nM
CNC[C@H]1CN(c2c(NC(=O)c3ccn(CC(F)F)n3)cc(F)c(Oc3ccccc3)c2F)CCN1C [Example 107]	220 nM
CNC[C@H]1CN(c2c(NC(=O)c3ccn(-c4ccnnc4)n3)cc(F)c(Oc3ccccc3)c2F)CCN1C [Example 108]	8.9 nM
NC[C@@H]1CCCN(c2c(NC(=O)c3ccn(CC(F)(F)F)n3)ccc(Oc3ccccc3)c2C(F)(F)F)C1 [Example 109, N-{2-[(3S)-3-(aminomethyl)piperidin-1-yl]-4-phenoxy-3-(trifluoromethyl)phenyl}-1-(2,2,2-trifluoroethyl)-1H-pyrazole-3-carboxamide]	110 nM
NC[C@@H]1CCCN(c2c(NC(=O)c3cccn(CC(F)(F)F)c3=O)ccc(Oc3ccccc3)c2C(F)(F)F)C1 [Example 110]	190 nM

Structure (SMILES)	IC50
Cc1cc(C(F)(F)F)n2nc(C(=O)Nc3ccc(Oc4ccccc4)c(C(F)(F)F)c3N3CCC[C@@H](CN)C3)cc2n1 [Example 111]	280 nM
CN1CCN(c2c(NC(=O)c3ccn(CC(F)F)n3)ccc(Oc3ccccc3F)c2Cl)C[C@@H]1CN [Example 112, N-{2-[(3S)-3-(aminomethyl)-4-methylpiperazin-1-yl]-3-chloro-4-(2-fluorophenoxy)phenyl}-1-(2,2-difluoroethyl)-1H-pyrazole-3-carboxamide]	52 nM
CN(C)CCOc1cc(-c2c(NC(=O)c3coc(-c4ccnnc4)n3)ccc(OC3CCC3)c2C(F)(F)F)ccn1 [Example 113, N-[4-(cyclobutyloxy)-2-{2-[2-(dimethylamino)ethoxy]pyridin-4-yl}-3-(trifluoromethyl)phenyl]-2-(pyridazin-4-yl)-1,3-oxazole-4-carboxamide]	21 nM
CN(C)CCOc1cccc(-c2c(NC(=O)c3coc(-c4ccnnc4)n3)ccc(OC3CC3)c2C(F)(F)F)c1 [Example 114]	37 nM
CN(C)[C@@H]1CCN2CCN(c3c(NC(=O)c4coc(-c5ccnnc5)n4)ccc(Oc4ccccc4)c3C(F)(F)F)C[C@@H]12 [Example 115]	7.9 nM
CN(C)C[C@H]1CN(c2c(NC(=O)c3coc(-c4ccnnc4)n3)ccc(Oc3ccccc3)c2C(F)(F)F)CCN1C [Example 116]	44 nM
CN(C)[C@@H]1CCN2CCN(c3c(NC(=O)c4ccn(-c5ccnnc5)n4)ccc(Oc4ccccc4F)c3C(F)(F)F)C[C@@H]12 [Example 118]	1.4 nM
CN(C)[C@@H]1CCN2CCN(c3c(NC(=O)c4coc(-c5ccnnc5)n4)ccc(OC4CC4)c3C(F)(F)F)C[C@@H]12 [Example 119]	41 nM
CN(C)[C@@H]1CCN2CCN(c3c(NC(=O)c4coc(-c5ccnnc5)n4)ccc(Oc4ccccc4F)c3C(F)(F)F)C[C@@H]12 [Example 120]	4.3 nM
CN(C)[C@@H]1CCN2CCN(c3c(NC(=O)c4ccn(-c5ccnnc5)n4)ccc(OC4CC4)c3C(F)(F)F)C[C@@H]12 [Example 121]	14 nM
CNC[C@H]1CN(c2c(NC(=O)c3ccn(-c4ccnnc4)n3)ccc(Oc3ccccc3F)c2C(F)(F)F)CCN1C [Example 122, N-[4-(2-fluorophenoxy)-2-{(3S)-4-methyl-3-[(methylamino)methyl]piperazin1-yl}-3-(trifluoromethyl)phenyl]-1-(pyridazin-4-yl)-1H-pyrazole-3-carboxamide monobutanedioate]	3.2 nM
CNC[C@@H]1CN(c2c(NC(=O)c3ccn(-c4ccnnc4)n3)ccc(Oc3ccccc3F)c2C(F)(F)F)CCN1C [Example 123, N-[4-(2-fluorophenoxy)-2-{(3R)-4-methyl-3-[(methylamino)methyl]piperazin1-yl}-3-(trifluoromethyl)phenyl]-1-(pyridazin-4-yl)-1H-pyrazole-3-carboxamide monobutanedioate]	4 nM
CNC[C@H]1CN(c2c(NC(=O)c3ccn(-c4ccnnc4)n3)ccc(C3CCCC3)c2C(F)(F)F)CCN1C [Example 124]	3.8 nM
CNC[C@H]1CN(c2c(NC(=O)c3ccn(-c4ccnnc4)n3)ccc(Oc3ccccc3F)c2Cl)CCN1C [Example 125]	1.8 nM
NC[C@]1(F)CCCN(c2c(NC(=O)c3ccn(-c4ccnnc4)n3)ccc(Oc3ccccc3F)c2C(F)(F)F)C1 [Example 126, N-{2-[(3R)-3-(aminomethyl)-3-fluoropiperidin-1-yl]-4-(2-fluorophenoxy)-3-(trifluoromethyl)phenyl}-1-(pyridazin-4-yl)-1H-pyrazole-3-carboxamide monobutanedioate]	6.2 nM
